In ChEMBL document CHEMBL1201861, “Genomics of Drug Sensitity in Cancer screening data, Wellcome Trust Sanger Institute”:
pIC50: −log10 of the molar value.

Tests used:
HOS = experiment: cells; type: functional, cell-based; conditions: Homo sapiens;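 note: growth inhibition of human HOS cells, read out with a cell viability assay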
Description: SANGER: Inhibition of human HOS cell growth in a cell viability assay.

HOP-92 = experiment: cells; type: functional, cell-based; conditions: Homo sapiens;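 note: cell viability readout, with IC50 reflecting inhibition of HOP-92 cell growth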
Description: SANGER: Inhibition of human HOP-92 cell growth in a cell viability assay.

LCLC-103H cell line = experiment: cells; type: functional, cell-based; conditions: Homo sapiens
Description: SANGER: Inhibition of human LCLC-103H cell growth in a cell viability assay.

IM-9 = experiment: SANGER: Inhibition of human IM-9 cell growth in a cell viability assay.; type: functional, cell-based
A253 cell line = experiment: cells; type: functional, cell-based; conditions: Homo sapiens;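 note: growth inhibition of A253 cells, read out with a cell viability assay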
Description: SANGER: Inhibition of human A253 cell growth in a cell viability assay.

SCLC-21H = experiment: cells; type: functional, cell-based; conditions: Homo sapiens;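 note: growth inhibition of cultured human SCLC-21H cells, read out with a cell viability assay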
Description: SANGER: Inhibition of human SCLC-21H cell growth in a cell viability assay.

SW756 = experiment: cells; type: functional, cell-based; conditions: Homo sapiens;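 note: growth inhibition of human SW756 cells, read out with a cell viability assay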
Description: SANGER: Inhibition of human SW756 cell growth in a cell viability assay.

IGR-1 = experiment: cells; type: functional, cell-based; conditions: Homo sapiens;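 note: growth inhibition of human IGR-1 cells, read out with a cell viability assay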
Description: SANGER: Inhibition of human IGR-1 cell growth in a cell viability assay.

NCI-H889 = experiment: cells; type: functional, cell-based; conditions: Homo sapiens;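 note: cell growth inhibition of the cell line, read out with a viability assay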
Description: SANGER: Inhibition of human NCI-H889 cell growth in a cell viability assay.

SN12C = experiment: cells; type: functional, cell-based; conditions: Homo sapiens;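 note: growth inhibition of human SN12C cells, measured by a cell viability assay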
Description: SANGER: Inhibition of human SN12C cell growth in a cell viability assay.

CAL-27 = experiment: cells; type: functional, cell-based; conditions: Homo sapiens;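 note: Viability-based readout, IC50 reflecting inhibition of CAL-27 cell growth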
Description: SANGER: Inhibition of human CAL-27 cell growth in a cell viability assay.

HuO-3N1 = experiment: cells; type: functional, cell-based; conditions: Homo sapiens;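 note: cell viability readout used to measure how strongly compounds suppress proliferation of human HuO-3N1 cells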
Description: SANGER: Inhibition of human HuO-3N1 cell growth in a cell viability assay.

NCI-H1651 = experiment: cells; type: functional, cell-based; conditions: Homo sapiens;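 note: Read-out is a cell viability assay, with IC50 expressing inhibition of NCI-H1651 cell growth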
Description: SANGER: Inhibition of human NCI-H1651 cell growth in a cell viability assay.

HT1197 = experiment: cells; type: functional, cell-based, HT-1197; conditions: Homo sapiens
Description: SANGER: Inhibition of human HT-1197 cell growth in a cell viability assay.

CAL-72 = experiment: cells; type: functional, cell-based; conditions: Homo sapiens;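 note: cell viability assay measuring inhibition of proliferation in the CAL-72 cell line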
Description: SANGER: Inhibition of human CAL-72 cell growth in a cell viability assay.

LOUCY = experiment: cells; type: functional, cell-based; conditions: Homo sapiens;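 note: growth inhibition of human LOUCY cells, read out with a cell viability assay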
Description: SANGER: Inhibition of human LOUCY cell growth in a cell viability assay.

NCI-H810 = experiment: cells; type: functional, cell-based; conditions: Homo sapiens;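 note: IC50 reflects inhibition of cancer cell line growth, read out with a cell viability assay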
Description: SANGER: Inhibition of human NCI-H810 cell growth in a cell viability assay.

COR-L105 = experiment: cells; type: functional, cell-based; conditions: Homo sapiens
Description: SANGER: Inhibition of human COR-L105 cell growth in a cell viability assay.

NCI-H1417 = experiment: cells; type: functional, cell-based; conditions: Homo sapiens;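 note: human NCI-H1417 cells, growth inhibition determined with a cell viability readout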
Description: SANGER: Inhibition of human NCI-H1417 cell growth in a cell viability assay.

NCI-H1618 = experiment: cells; type: functional, cell-based; conditions: Homo sapiens;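 note: growth inhibition of human NCI-H1618 cells, measured by a cell viability assay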
Description: SANGER: Inhibition of human NCI-H1618 cell growth in a cell viability assay.

SW948 = experiment: cells; type: functional, cell-based; conditions: Homo sapiens;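 note: growth inhibition of SW948 cells, read out with a cell viability assay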
Description: SANGER: Inhibition of human SW948 cell growth in a cell viability assay.

L-540 = experiment: cells; type: functional, cell-based; conditions: Homo sapiens;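 note: growth inhibition of the human L-540 cell line, read out with a viability assay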
Description: SANGER: Inhibition of human L-540 cell growth in a cell viability assay.

NCI-H187 = experiment: cells; type: functional, cell-based; conditions: Homo sapiens;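 note: growth inhibition of NCI-H187 cells, read out as cell viability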
Description: SANGER: Inhibition of human NCI-H187 cell growth in a cell viability assay.

D-392MG = experiment: cells; type: functional, cell-based; conditions: Homo sapiens
LB996-RCC = experiment: cells; type: functional, cell-based; conditions: Homo sapiens
Description: SANGER: Inhibition of human LB996-RCC cell growth in a cell viability assay.

SNU-C1 = experiment: cells; type: functional, cell-based; conditions: Homo sapiens;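 note: growth inhibition of SNU-C1 human cells, read out by a cell viability assay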
Description: SANGER: Inhibition of human SNU-C1 cell growth in a cell viability assay.

MHH-CALL-2 = experiment: cells; type: functional, cell-based; conditions: Homo sapiens;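 note: growth inhibition of the cell line, read out in a cell viability assay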
Description: SANGER: Inhibition of human MHH-CALL-2 cell growth in a cell viability assay.

SW837 = experiment: cells; type: functional, cell-based; conditions: Homo sapiens;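 note: growth inhibition of SW837 cells, determined with a cell viability assay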
Description: SANGER: Inhibition of human SW837 cell growth in a cell viability assay.

ABC-1 = experiment: cells; type: functional, cell-based; conditions: Homo sapiens;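 note: growth inhibition of human ABC-1 cells, read out by a cell viability assay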
Description: SANGER: Inhibition of human ABC-1 cell growth in a cell viability assay.

NCI-H1792 = experiment: cells; type: functional, cell-based; conditions: Homo sapiens;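 note: growth inhibition of human NCI-H1792 cells, read out as cell viability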
Description: SANGER: Inhibition of human NCI-H1792 cell growth in a cell viability assay.

D-542MG = experiment: cells; type: functional, cell-based; conditions: Homo sapiens
Description: SANGER: Inhibition of human D-542MG cell growth in a cell viability assay.

SNU-423 = experiment: cells; type: functional, cell-based; conditions: Homo sapiens
Description: SANGER: Inhibition of human SNU-423 cell growth in a cell viability assay.

SW1573 = experiment: cells; type: functional, cell-based; conditions: Homo sapiens;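 note: growth inhibition of SW1573 cells, read out with a cell viability assay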
Description: SANGER: Inhibition of human SW1573 cell growth in a cell viability assay.

ChaGo-K-1 = experiment: cells; type: functional, cell-based; conditions: Homo sapiens;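 note: growth inhibition of ChaGo-K-1 cells, read out with a cell viability assay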
Description: SANGER: Inhibition of human ChaGo-K-1 cell growth in a cell viability assay.

NCI-H1963 = experiment: cells; type: functional, cell-based; conditions: Homo sapiens;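 note: cell growth inhibition of the human line, determined with a cell viability assay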
Description: SANGER: Inhibition of human NCI-H1963 cell growth in a cell viability assay.

A-431 = experiment: cells; type: functional, cell-based; conditions: Homo sapiens;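 note: growth inhibition of A-431 cells, determined with a cell viability read-out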
Description: SANGER: Inhibition of human A431 cell growth in a cell viability assay.

U-698-M = experiment: cells; type: functional, cell-based; conditions: Homo sapiens
Description: SANGER: Inhibition of human U-698-M cell growth in a cell viability assay.

M059J = experiment: cells; type: functional, cell-based; conditions: Homo sapiens;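 note: growth inhibition of M059J cells, read out with a cell viability assay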
Description: SANGER: Inhibition of human M059J cell growth in a cell viability assay.

KMS-12-PE = experiment: cells; type: functional, cell-based; conditions: Homo sapiens;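 note: growth inhibition of human KMS-12-PE cells, measured with a cell viability assay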
Description: SANGER: Inhibition of human KMS-12-PE cell growth in a cell viability assay.

NCI-H719 = experiment: cells; type: functional, cell-based; conditions: Homo sapiens;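 note: growth inhibition of the cultured cell line, read out with a viability assay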
Description: SANGER: Inhibition of human NCI-H719 cell growth in a cell viability assay.

P31-FUJ = experiment: cells; type: functional, cell-based; conditions: Homo sapiens;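 note: growth inhibition of P31-FUJ cells, read out with a viability assay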
Description: SANGER: Inhibition of human P31-FUJ cell growth in a cell viability assay.

SBC-5 = experiment: cells; type: functional, cell-based; conditions: Homo sapiens;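 note: cell viability assay read-out, IC50 is the concentration that inhibits growth of the cells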
Description: SANGER: Inhibition of human SBC-5 cell growth in a cell viability assay.

HCC1419 = experiment: cells; type: functional, cell-based; conditions: Homo sapiens;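 note: growth inhibition of human HCC1419 cells, read out as cell viability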
Description: SANGER: Inhibition of human HCC1419 cell growth in a cell viability assay.

CHP-126 = experiment: cells; type: functional, cell-based; conditions: Homo sapiens
Description: SANGER: Inhibition of human CHP-126 cell growth in a cell viability assay.

MC-CAR = experiment: cells; type: functional, cell-based; conditions: Homo sapiens;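 note: growth inhibition of the human MC-CAR cell line, read out by a cell viability assay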
Description: SANGER: Inhibition of human MC-CAR cell growth in a cell viability assay.

NCI-H322M = experiment: cells; type: functional, cell-based; conditions: Homo sapiens;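 note: cell viability assay measuring inhibition of growth of human NCI-H322M cells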
Description: SANGER: Inhibition of human NCI-H322M cell growth in a cell viability assay.

OE19 = experiment: cells; type: functional, cell-based; conditions: Homo sapiens;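 note: growth inhibition of OE19 cells, measured through a cell viability read-out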
Description: SANGER: Inhibition of human OE19 cell growth in a cell viability assay.

U-251 = experiment: cells; type: functional, cell-based; conditions: Homo sapiens;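 note: growth inhibition of human U-251 cells, read out through a cell viability assay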
Description: SANGER: Inhibition of human U251 cell growth in a cell viability assay.

EFO-27 = experiment: cells; type: functional, cell-based; conditions: Homo sapiens;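 note: growth inhibition of EFO-27 cells, read out with a cell viability assay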
Description: SANGER: Inhibition of human EFO-27 cell growth in a cell viability assay.

S-117 = experiment: cells; type: functional, cell-based; conditions: Homo sapiens
Description: SANGER: Inhibition of human S-117 cell growth in a cell viability assay.

HPAF-II = experiment: cells; type: functional, cell-based; conditions: Homo sapiens;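 note: growth inhibition of HPAF-II cells, read out with a cell viability assay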
Description: SANGER: Inhibition of human HPAF-II cell growth in a cell viability assay.

EHEB = experiment: cells; type: functional, cell-based; conditions: Homo sapiens;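 note: growth inhibition of human EHEB cells, read out with a cell viability assay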
Description: SANGER: Inhibition of human EHEB cell growth in a cell viability assay.

NCI-H524 = experiment: cells; type: functional, cell-based; conditions: Homo sapiens;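 note: growth inhibition of human NCI-H524 cells, read out through a cell viability assay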
Description: SANGER: Inhibition of human NCI-H524 cell growth in a cell viability assay.

SK-N-AS = experiment: cells; type: functional, cell-based; conditions: Homo sapiens;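 note: growth inhibition of human SK-N-AS cells, measured with a cell viability assay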
Description: SANGER: Inhibition of human SK-N-AS cell growth in a cell viability assay.

HCC1954 = experiment: cells; type: functional, cell-based; conditions: Homo sapiens;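 note: growth inhibition of human HCC1954 cells, read out with a cell viability assay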
Description: SANGER: Inhibition of human HCC1954 cell growth in a cell viability assay.

SCC-4 = experiment: cells; type: functional, cell-based; conditions: Homo sapiens;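 note: growth inhibition of human SCC-4 cells, read out as cell viability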
Description: SANGER: Inhibition of human SCC-4 cell growth in a cell viability assay.

HCC1395 = experiment: cells; type: functional, cell-based; conditions: Homo sapiens;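 note: growth inhibition of HCC1395 cells, read out by a cell viability assay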
Description: SANGER: Inhibition of human HCC1395 cell growth in a cell viability assay.

DG-75 = experiment: cells; type: functional, cell-based; conditions: Homo sapiens;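 note: growth inhibition of DG-75 cells, read out with a cell viability assay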
Description: SANGER: Inhibition of human DG-75 cell growth in a cell viability assay.

LoVo = experiment: cells; type: functional, cell-based; conditions: Homo sapiens;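 note: growth inhibition of human LoVo cells, read out with a cell viability assay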
Description: SANGER: Inhibition of human LoVo cell growth in a cell viability assay.

Measured: pIC50

CCNC(=O)c1noc(-c2cc(C(C)C)c(O)cc2O)c1-c1ccc(CN2CCOCC2)cc1 [LUMINESPIB]
7.11: HOP-92
7.98: SNU-423
6.90: ChaGo-K-1 | S-117
7.59: EHEB
6.78: CAL-72
7.55: SCC-4
7.30: A253 cell line
7.69: IGR-1
7.41: LoVo
7.06: ABC-1
7.31: NCI-H1417
7.13: U-698-M
8.22: A-431
8.37: LCLC-103H cell line
7.76: NCI-H810
6.85: D-542MG
7.52: SW837
7.02: HCC1419
7.24: SW1573
7.65: M059J
7.71: OE19
7.38: SW756
6.63: IM-9
7.61: NCI-H1651
7.57: LB996-RCC
7.72: COR-L105
7.09: CAL-27
8.30: LOUCY
7.99: EFO-27
7.77: HT1197
7.34: NCI-H1792 | MC-CAR
8.86: HOS
7.32: U-251
7.29: NCI-H1963
7.04: SBC-5
7.12: CHP-126
6.89: KMS-12-PE
7.42: D-392MG
6.61: SN12C
< 6.59: all other assays above

CC(O)(CS(=O)(=O)c1ccc(F)cc1)C(=O)Nc1ccc(C#N)c(C(F)(F)F)c1 (configuration not stated) [BICALUTAMIDE]
< 5.99: all assays above

N#C/C(=C1/Nc2ccccc2S1)c1ccnc(NCCc2cccnc2)n1
5.57: LoVo
5.54: LB996-RCC
5.16: SBC-5 | S-117
5.75: COR-L105
5.34: ChaGo-K-1
5.53: U-698-M | OE19
6.09: HuO-3N1
5.64: SNU-423
5.27: NCI-H810
5.28: SW837
5.33: IGR-1
< 5.10: all other assays above
